Assay results from patent publication US6585991B1, “Termite bait matrix” (The United States of America as represented by the …, priority 1999, dated 2003).

Assays:
[1] = tested on: termite workers and soldiers; assay: Non-choice tests of antibiotics and a fungus inhibitor in bait matrix; type: in vivo; conditions: 100 ppm in bait matrix; after three weeks of exposure
Experimental: Non-choice tests using five different antibiotics (streptomycin sulfate, rifampicin, albendazole, neomycin sulfate, and antimycotic) and a fungus inhibitor (sorbic acid) were conducted at four different concentrations (100, 250, 500, and 1000 ppm). Individual chemicals were mixed with the bait matrix of Example 3 at each concentration and 10 g samples of each were transferred to sterile plastic Petri dishes and exposed to groups of 20 termite workers and two soldiers. Five repetitions per treatment were done. The dishes were kept in a Percival incubator under dark conditions at 27±1° C. and 80% relative humidity. A control containing no antibiotic or fungus inhibitor was prepared and kept under the same conditions as the treatments. Time required to reach 100% mortality was recorded.

[2] = tested on: Formosan subterranean termite colony; assay: Pair choice test, yellow pine versus bait matrix mixed with hexaflumuron; type: in vivo, Coptotermes formosanus; conditions: 50 ppm hexaflumuron in bait matrix; period of 10 weeks; colony of 1500
Experimental: To determine the acceptance by the Formosan subterranean termite of the bait matrix of Example 3 with toxic chemicals added, a pair choice test between a 25 g piece of yellow pine and an equivalent amount of bait matrix mixed with 50-ppm hexaflumuron was performed. Both pine and bait matrix were exposed to a Formosan termite colony composed of 1500 soldiers, workers, and nymphs, housed in a plastic Sterilite container containing 2L topsoil:sand (1:1) at 40% relative humidity. The treatment box was maintained under dark conditions at 26±3° C. A control, 12″ yellow pine wood stakes without hexaflumuron, was prepared and kept at the same conditions as the treatment.

termite = conditions: 125 ppm hexaflumuron in a matrix composed of spruce sawdust; cited from earlier work

Row | Compound | Mortality [1] [%] | Mortality [2] [%] | Mortality compared with 50 ppm in bait matrix (100% in 10 weeks) (termite)
1 | neomycin sulfate | 40 | – | –
2 | O=C(NC(=O)c1c(F)cccc1F)Nc1cc(Cl)c(OC(F)(F)C(F)F)c(Cl)c1 [hexaflumuron] | – | 100 | equivalent
3 | CCCSc1ccc2nc(NC(=O)OC)[nH]c2c1 [albendazole] | 40 | – | –
4 | C/C=C/C=C/C(=O)O [sorbic acid] | 33 | – | –
